Patent publication US9175077B2, “Nucleic acids encoding biologically active polypeptides derived from a novel early stage pregnancy factor designated maternin (MA)” (NOBEL BIOSCIENCES LLC, priority 1999, dated 2015)
Entries after “also recorded” stand apart in the source; their conditions may differ. Like-named read-outs stand apart in the source and are kept apart here.

Legend:
[1] = test system: human carcinoma and sarcoma cells (PC3, KS Y-1); experiment: Xenotransplanted human tumors in immunodeficient mice; format: in vivo; details: controls at equivalent and higher molar concentrations
Description: In the first set of experiments, MA was tested against tumors formed by xenotransplantation of various human carcinoma and sarcoma cells in immunodeficient mice. […] […] Three different synthetic forms of MA were used: full length (MAS3) and the previously described MAS1 and MAS2 (Panel C).

[2] = test system: carcinoma of the breast HTB124; experiment: Confocal microscopy apoptosis; format: cell-based, human; details: 200 ng/ml; 24 hrs
Description: (§1) More extensive studies of the effects of MA and with truncated synthetic forms of MA (MAS) on a wide range of other human tumor cells were carried out using three-dimensional confocal microscopy. Cells were cultured and then seeded onto gelatinized glass chamber slides and incubated 24 hrs with the various test materials. The slides were then fixed with formalin and treated serially with Triton X-100 (0.01%) for 10 min at 25°, 0.4 ug/ml fluorescein isothiocyanate (FITC)-labeled Phalloidin (Sigma Chem. Co.) at room temperature for 30 min to bind actin, washed with PBS and the DNA stained with Propidium iodide (PI) (0.5 ug·ml) (Sigma Chemical Co.), for 15 min. The stained slides were washed and mounted on slow fade (Molecular Probes, Inc., Eugene, Oreg.) and examined through a dual emission filter XF53 (Omega, Inc., Brattlesboro, Va.) by fluorescent microscopy. In some experiments only DNA staining was performed. In these instances Triton X-100 was not used. The slides were stained with PI and examined for cell morphology and chromatin degradation under 3D confocal microscopy.

[3] = test system: Ewing's sarcoma; experiment: Confocal microscopy apoptosis; format: cell-based, human; details: 200 ng/ml; 24 hrs
Description: as §1

[4] = test system: gliobastoma HTB16; experiment: Confocal microscopy apoptosis; format: cell-based, human; details: 200 ng/ml; 24 hrs
Description: as §1

[5] = test system: fibrosarcoma 4TB166; experiment: Confocal microscopy apoptosis; format: cell-based, human; details: 200 ng/ml; 24 hrs
Description: as §1

[6] = test system: prostate carcinoma cell line PC4; experiment: Confocal microscopy apoptosis; format: cell-based, human; details: 200 ng/ml; 24 hrs
Description: as §1

[7] = test system: carcinoma of the lung HTB184; experiment: Confocal microscopy apoptosis; format: cell-based, human; details: 200 ng/ml; 24 hrs
Description: as §1

[8] = test system: KS Y-1 cells; experiment: Confocal microscopy apoptosis; format: cell-based, human; details: 200 ng/ml; 24 hrs
Description: as §1

[9] = test system: leukemia and lymphoma cell lines: HUT78, DAVDI, HG, SULTAN, T-cell lymphoma; experiment: Confocal microscopy apoptosis; format: cell-based, human; details: 200 ng/ml; 24 hrs
Description: as §1

[10] = test system: carcinoma of the pancreas CRL 1682; experiment: Confocal microscopy apoptosis; format: cell-based, human; details: 200 ng/ml; 24 hrs
Description: as §1

[11] = test system: carcinoma of the kidney HTB46; experiment: Confocal microscopy apoptosis; format: cell-based, human; details: 200 ng/ml; 24 hrs
Description: as §1

[12] = test system: melanoma HTB67; experiment: Confocal microscopy apoptosis; format: cell-based, human; details: 200 ng/ml; 24 hrs
Description: as §1

[13] = test system: prostate carcinoma cell line PC3; experiment: Confocal microscopy apoptosis; format: cell-based, human; details: 200 ng/ml; 24 hrs
Description: as §1

[14] = test system: carcinoma of the colon; experiment: Confocal microscopy apoptosis; format: cell-based, human; details: 200 ng/ml; 24 hrs
Description: as §1

[15] = test system: HIV-1; details: controls at similar, equimolar or higher concentrations
Description: Virus (MOI of 0.001) was added to 10^6 cells in RPMI-1640 with 10% FCS. One hour later the various polypeptides were added once. The cells cultured for 3 days with 5 ug PHA and 20 i.m. of II-2/ml at 37°, after which virus was estimated by determining p24 (HIV-1) or p27 (SIV) (Organon-Teknika).
The effect of native and synthetic MA on HIV-1 infection in vitro was evaluated using PHA and II-2 stimulated primary peripheral blood cells (PBMC), CD4+ T-cells enriched fractions from PBMC, and CD14+ macrophage enriched fractions. Infection was with HIV-1 IIIB (PBMC and CD4+ T-cells), HIV-1 Ba-L (macrophages), and two primary HIV-1 isolates not passaged in any cell line (PBMC).

[16] = test system: human tumor cells; format: cell-based; details: controls at equimolar or 5 to 10× greater concentrations
Description: The anti-tumor activities of MA were assessed in several in vitro and in vivo systems using published methods.^166 In vitro studies were with a wide variety of human tumor cell lines as well as short-term cultures of cells from biopsy samples obtained from tumors. The assays included effects of MA on colony formation, cell number and viability (trypan blue), and apoptosis. Four measures of microscopy were used. In vivo studies included the effects of MA on tumors induced in immunodeficient mice by xenotransplanted various human neoplastic cells, spontaneous neoplasms of immuno-competent mice and rats, and a few standard tumors in immuno-competent mice. Representative examples are presented.
Cells (5×10^5/ml) were seeded in modified Eagle's medium supplemented with 10% FCS, 10% conditioned medium form PHA stimulated human lymphocytes, 2 mM glutamine in 0.8% V/V methylcellulose with or without various treatments in a final volume of 1.0 ml. Then 0.1 ml aliquots were seeded in 96 well flat bottom microtest plates and incubated at 37° C. in 5% CO2 in air for 7 days. Aggregates containing 50 cells or more were scored as colonies.
5×10^5 cells were seeded in triplicate on 24 gelatin coated wells in conditions as described for Panel A and treated with the indicated test materials. After 3 days the cells were dislodged from their monolayers by gentle pipetting with cell dissociation buffer (Life Technologies), counted after trypan blue staining and aliquots examined for Annexin V staining by indirect IFA […].
Studies of the anti-tumor cell effects of MA were extended to other carcinomas, melanoma, some hematopoietic tumors, and carcinomas of the colon, prostate, breast, lung, brain, pancreas, and kidney-using cell lines from these tumors. […] Many more types of tumor cells were studied utilizing other assays (see below).

[17] = test system: HIV-1 gene expression; experiment: HIV-1 transgenic mice, pups feeding from treated mothers; format: in vivo; details: mouse, in vivo
Excerpt: The transgenic mice contain 5.1 kb of the HIV-1 proviral genome, lacking gag and pol genes and 2.3 kb of vector.^172 The newly developed transgenic rat contains the same HIV-1 sequences and vector.
Twenty-four hours after birth the mothers were either inoculated subcutaneously daily for 10 days or received an implanted osmotic pump delivering 30-150 pmoles of either native or synthetic MA or pMA. Various control polypeptides were used at equimolar or vast molar excess. The newborn pups were then allowed to feed from the foster mother breast milk over the entire period. Since the animals are at risk from needle inoculation, breastfeeding was the chosen route for MA administration.
In these experiments total RNA was extracted from samples of skin RNA206 10 days after birth of MA treated and untreated mice. One ug of RNA was reverse transcribed into cDNA using random hexamer primer and […] reverse transcriptase (Life Technologies, Inc.) in a final vol. Of 30 ul. Three ul of each reaction was used for PCR amplification of the HIV-1 gene sequences (env, tat, nef, and rev) as described […], and glyceraldehyde 3-phosphate dehydrogenase (GAPDH) was amplified from each sample for normalization. After 25 cycles, 10% of the products were resolved by electrophoresis on 2% agarose gels, transferred to nitrocellulose membranes by Southern blotting, and hybridized to fluorescein isthiocyanate-labeled oligonucleotide probes complementary to internal sequences of the amplicons […]. Bound probes were detected by chemiluminescence (Amersham) and relative mRNA levels determined by densitrometry after normalization with GAPDH mRNA levels.

[18] = Summary of active and inactive peptides / overall biological activities
[19] = Lethally irradiated rats and mice; details: treated at time of radiation
Description: In order to determine in vivo relevance of the prohematopoietic effects of MA treated rats and mice under several conditions of bone marrow suppression. First, the effects of native MA and pMA and of the synthetic 15-mer MAS1 were treated for their capacity to reduce or prevent the effects of lethal doses of gamma irradiation. […] MA, pMA, MAS1, and various control polypeptides were given 48 and 24 hrs before, during, or 24 hrs after radiation. The animals treated prior to radiation received either 100 ng vs. 1 ug (rats) or 50 ng vs. 500 ng (mice) as 2 subcutaneous injections.
It is not yet possible to determine the precise molar dose of pMA because of less certainty on its full-length sequence.
To ascertain that the MA effect did promote hematopoiesis in these animals we examined the bone marrow for cellularity and colony formation and determined peripheral blood counts.

[20] = Lethal dose taxol in Sprague-Dawley rats; format: in vivo; details: even at high doses
Description: Sprague-Dawley rats were given taxol in large lethal doses, 4.5 mg in one I.P. inoculation. […] Bone marrow suppression can also be a side effect of the clinical use of taxol.^179 As in the radiation experiments, either MA, pMA, MAS1, or various polypeptide controls were given subcutaneously only in two doses 24 and 48 hrs before taxol treatment or were given 3×/week for 4 weeks. […]

[21] = test system: hematopoietic progenitors (CFU-GEMM, BFU-e, CFU-GM, T-CFC); experiment: Hematopoietic colony formation assays; format: cell-based, human
Excerpt: Hematopoietic colony formation assays with bone marrow or cord blood of normal human volunteers and bone marrow of monkeys, rats, and mice were utilized. The assays are conventional measurements of the number of progenitors for erythrocytes, granulocytes, macrophages, platelets, and T-cells. The culture conditions included growth factors that would give near optimum growth for the particular lineage. These factors included II-3, PHA-lymphocyte conditioned medium, erythropoietin (EPO), II-6, and GM-CSF. The number of colonies developing in methylcellulose reflects the number of progenitor cells, and the percent increase is a measure of the effect of different polypeptides to increase colony number above the maximum obtained with the indicated known growth factors.
The latter is a less conventional assay, and details on the methods involved are described elsewhere.^178

NYRDVRFESIRLPGCPRGVNPVVSYAVALS (listed as Homo sapiens) [MAS2]
effect on xenotransplanted tumor (qualitative) [1]: hypocellularity and degenerative changes of the cells; also recorded: undergoing apoptosis
induction of apoptosis [2]: induced apoptosis
induction of apoptosis [3]: induced apoptosis
induction of apoptosis [4]: induced apoptosis
induction of apoptosis [5]: induced apoptosis
induction of apoptosis [6]: induced apoptosis
induction of apoptosis [7]: induced apoptosis
induction of apoptosis [8]: induced apoptosis
induction of apoptosis [9]: induced apoptosis
induction of apoptosis [10]: induced apoptosis
induction of apoptosis [11]: induced apoptosis
induction of apoptosis [12]: induced apoptosis
induction of apoptosis [13]: induced apoptosis
induction of apoptosis [14]: induced apoptosis
inhibition of HIV replication (qualitative) [15]: full-inhibition

β-hCG 6-39: SEQ ID NO: 17 (RPRCRPINATLAVEKEGCPVCITVNTTICAGYCP; listed as Homo sapiens)
inhibition of growth / induction of apoptosis of neoplastic cells [16]: negative

β-hCG AA 21-52: control peptide 32 amino acids in length, AA 21-52 of β-hCG (EGCPVCITVNTTICAGYCPTMTRVLQGVLPAL; listed as Homo sapiens) [reference compound]
HIV-1 viral expression in tissues [17]: high expression
mice dead by day 10 [17]: 10 of 10
inhibition of growth / induction of apoptosis of neoplastic cells [16]: negative

peptide 6-42: β-core AA 6-42 N-terminal polypeptide with PDGF related sequences (RPRCRPINATLAVEKEGCPVCITVNTTICAGYCPTMT; UniProt P0DN86 26-62, looked up, fragment) [reference compound]
biological activities in vitro or in vivo in the experimental systems described [18]: none of the activities

B1: β-core: purified hCG beta core, degradation product of the beta chain of hCG; full length native glycosylated AA 6-40 & 55-92 (protein)
chain 1: RPRCRPINATLAVEKEGCPVCITVNTTICAGYCPTMT
chain 2: VVCNYRDVRFESIRLPGCPRGVNPVVSYAVALSCQCAL
time within which animals died [19]: ≤ 5 days
effect on xenotransplanted tumor (qualitative) [1]: no effect
HIV-1 viral expression in tissues [17]: high expression
mice dead by day 10 [17]: 10 of 10
biological activities in vitro or in vivo in the experimental systems described ([18]; listed as native glycosylated β-core): none of the biological activities
biological activities in vitro or in vivo in the experimental systems described ([18]; listed as purified native glycosylated core): no activity
effect on survival (qualitative) [20]: no effect
inhibition of growth / induction of apoptosis of neoplastic cells [16]: no inhibition of growth or induction of apoptosis
hematopoietic effects in vivo and in vitro [21]: None
effect on colony number (qualitative) ([21]; equimolar or higher concentrations): no significant effect above background
